Experiments:
[1] = system: THP1-Dual™ KO-TREX1 cells; assay: Cellular assay for altering IFN production in THP1 TREX1 KO cells; assay type: cell-based; settings: in the presence of 1 μM 5-aza-2′-deoxycytidine, five days
Method: THP1-Dual™ KO-TREX1 cells were purchased from Invivogen (cat #thpd-kotrex). The THP1-Dual™ KO-TREX1 cells were cultured in RPMI 1640, 10% heat-inactivated fetal bovine serum, 25 mM HEPES, 10 μg/mL Blasticidin, and 100 μg/mL Zeocin. THP1-Dual™ KO-TREX1 cells were treated with a dose titration of test compound in the presence of 1 μM 5-aza-2′-deoxycytidine (Sigma, cat #189825). Type 1 Interferon and cell viability were assessed after five days of treatment.
Stock solution of test compound was prepared in DMSO followed by a three-fold dilution in DMSO. Additional 50× dilution was prepared in cell culture media for each dilution. 10 μL of diluted test compound was then added to a 384-well plate.
THP1-Dual™ KO-TREX1 cells were treated with 1 μM 5-aza-2′-deoxycytidine. THP1-Dual™ KO-TREX1 cells (50 μL) were added to each well of the 384-well plate containing test compound titration at 10,000 cells/well. Cells were incubated at 37° C., 5% CO2 in a humidified incubator for five days. On day five, 20 μL of cell supernatant was transferred to a 384-well, white-walled plate, followed by addition to each well of 50 μL of QUANTI-LUC solution containing stabilizer. Luminescence was detected on a plate reader according to manufacturer's instructions. […]

[2] = system: KYSE-410 cells; assay: Cancer cell viability assay with 3D cell colonies (CellTiter-Glo), KYSE-410; assay type: cell-based; settings: Homo sapiens, KYSE-410, 168 h, 7 days
Method: Ovarian cancer cell line SK-OV-3 cells were cultured in McCoy's 5a media containing 10% FBS. Ovarian cancer cell line OVCAR-8 cells were cultured in RPMI media containing 10% FBS. Additional cancer cell lines were cultured in the following media: • Ovarian cancer SW756 cells—L-15 (100% air)+10% FBS • Esophageal cancer TE-1 cells—RPMI-1640+10% FBS • Esophageal cancer KYSE-410 cells—RPMI-1640+5˜10% FBS • Esophageal cancer KYSE-70 cells—RPMI-1640+10% h.i.FBS. • Pharyngeal cancer FaDu cells—MEM+0.01 mM NEAA+10% FBS
Cell colony formation was tested using a 3D methylcellulose-based CellTiter-Glo (CTG) viability assay (Cat. No: G7573, Promega). Briefly, cells were inoculated into 96-well plates (at 1,500 cells per well) into a solution of 0.65% methylcellulose in growth media and incubated overnight at 37° C. in 5% CO2. The next day, serially diluted test compound (islatravir) or positive control (cisplatin, Cat. No. 6J015A89, Qilu Pharma) were added at the indicated concentrations, and the cells were incubated for 7 days. On day seven, 100 μL of CTG reagent was added, and the plates were incubated at room temperature for 20 min. Luminescence was read on an Envision Multi Label Reader according to manufacturer's instructions. IC50 values were determined using the following calculation: […]

- IC50 [2]: > 30 µM
SMILES: C#C[C@]1(CO)O[C@@H](n2cnc3c(N)nc(F)nc32)C[C@@H]1O [Islatravir, (2R,3S,5R)-5-(6-amino-2-fluoro-9H-purin-9-yl)-2-ethynyl-2-(hydroxymethyl)tetrahydrofuran-3-ol]
- changes in IFN levels (% induction) [1]: induction of IFN
